In brackets after ≈: the same amount, converted by molar mass.
Experiments:
[1] = system: calpain; experiment: calpain inhibition using casein as substrate (method by Saito et al.); assay type: biochemical
[2] = system: various kinds of bacteria, yeast and fungi; experiment: antimicrobial activity (paper disk method); assay type: cell-based; conditions: 100 μg/disk
[3] = system: B-16 melanoma cells; experiment: activity against B-16 melanoma cells in vitro; assay type: cell-based; conditions: Mus musculus, B16
[4] = acute toxicity LD50 (ip) in mice; conditions: mouse, in vivo
[5] = solubility in solvent; assay type: physicochemical; conditions: water, methanol, acetone, chloroform and benzene

Compound: NC(=O)CCc1cc[nH]c1 [cystamidin A]
- IC50 (50% inhibition) against calpain [1]: 0.20 µg/mL (≈ 1.45 µM)
- antimicrobial activity [2]: no antimicrobial activity
- IC50 [3]: > 25 µg/mL
- LD50 [4]: > 200 mg/kg
- Solubility in solvent [5]: soluble in water, methanol, acetone, chloroform and benzene
